Data: article PMC12668310, “High‐Throughput Synthesis and Screening of a Cyanimide Library Identifies Selective Inhibitors of ISG15‐Specific Protease mUSP18” (Angewandte Chemie (International Ed. in English), 2025)
Where two headings read alike, the source gives them in different places.

Molecular target: T1, mUSP18 (Mus musculus, UniProt Q9WTV6)
T1 construct: (46-368); His-tag (N); made in house
T1 sequence (Q9WTV6 46-368): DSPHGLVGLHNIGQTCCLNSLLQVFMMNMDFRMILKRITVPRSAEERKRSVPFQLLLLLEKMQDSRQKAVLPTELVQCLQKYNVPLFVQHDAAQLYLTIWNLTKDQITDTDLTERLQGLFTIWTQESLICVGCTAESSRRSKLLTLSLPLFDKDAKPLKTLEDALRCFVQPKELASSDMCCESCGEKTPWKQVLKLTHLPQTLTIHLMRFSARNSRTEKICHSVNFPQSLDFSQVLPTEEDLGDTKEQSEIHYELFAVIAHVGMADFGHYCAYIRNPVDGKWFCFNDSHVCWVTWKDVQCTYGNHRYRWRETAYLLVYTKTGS
Experiment: High-throughput screening, ISG15ct-RhoMP, single dose 1.25 µM
Format: biochemical, murine
Details: for inhibition at 1.25 µM: mUSP18 %inhibition; for inhibition of mUSP18 by individual CA's and coupling reagents: screened with and without DIC/HOBt

[1] = carboxylic acid (CA) building block alone, read-out: %inh CA only
[2] = carboxylic acid (CA) with coupling reagents DIC/HOBT, read-out: %inh CA + DIC/HOBT

SMILES | inhibition at 1.25 µM [1] | inhibition at 1.25 µM [2] | inhibition of mUSP18 by individual CA's and coupling reagents
CC1CN(c2ccc(C(=O)O)cn2)CC(C)O1 (stereo not shown) [CA352] | -4.1% | 13.3% | –
O=C(O)c1csc(C2CCCCC2)n1 [CA353] | 14.4% | 1.26% | –
O=C(O)c1occc1-c1ccccc1 [CA354] | 10.9% | -1.55% | –
O=C(O)c1ccc(Cn2cccn2)s1 [CA355] | 7.41% | -1.93% | –
O=C(O)C1CC2CCC1O2 (stereo not shown) [CA356] | 3.97% | -4.92% | –
O=C(O)c1ccc(-c2ccccn2)nc1 [CA357] | 4.64% | -1.59% | –
O=C(O)C1CC2C=CC1O2 (stereo not shown) [CA358] | 5.65% | -4.55% | –
O=C(O)C1CC=CCC1C(=O)N1CCOCC1 (stereo not shown) [CA359] | 4.09% | 0.61% | –
O=C(O)c1cccc(N2CCOCC2)n1 [CA360] | 3.09% | -0.29% | –
O=C(O)c1cccc(Cn2cncn2)c1 [CA361] | -2.66% | 0.1% | –
O=C(O)c1cc(-n2cccc2)ccn1 [CA362] | 6.21% | 0.7% | –
O=C(O)c1ccc(Cn2ccnn2)o1 [CA363] | 4.39% | -0.81% | –
Cc1onc(C(=O)O)c1CN1CCOCC1 [CA364] | 5.31% | 1.01% | –
O=C(O)C1CCN(S(=O)(=O)N2CCCCC2)CC1 [CA365] | -1.04% | 2.17% | –
CC1(C(=O)O)CCCCN1C(=O)OCc1ccccc1 (stereo not shown) [CA366] | 0.85% | 3.29% | –
O=C(O)c1sccc1S(=O)(=O)NC1CCCCCC1 [CA367] | 1.29% | 5.26% | –
CCn1nccc1-c1cc(C(=O)O)no1 [CA368] | 0.71% | 2.58% | –
O=C(O)c1cccc(C(=O)N2CCCC2)n1 [CA369] | 0.72% | 1.39% | –
O=C(O)[1C@@H]1CCCO[1C@H]1c1ccccc1 [CA370] | 2.12% | 9.77% | –
O=C(O)C1CCCN(S(=O)(=O)c2cccs2)C1 (stereo not shown) [CA371] | 1.66% | 2.42% | –
O=C(O)c1ccc(Cn2cc(Cl)c(C(F)(F)F)n2)o1 [CA372] | 5.98% | 8.2% | –
COc1ccc(C(=O)O)cc1S(=O)(=O)N(C)CCc1cccnc1 [CA373] | 0.43% | 4.83% | –
O=C(O)CC1CCN(c2ccc(C(F)(F)F)cn2)CC1 [CA374] | 0.78% | 1.18% | –
O=C(O)c1cccnc1-n1cncn1 [CA375] | -1.76% | 7.93% | –
CCc1ccc(C(=O)N2CCC(C(=O)O)CC2)o1 [CA376] | 6.04% | -8.39% | –
O=C(O)c1cnn(-c2ccccc2)n1 [CA377] | 2.74% | -10.8% | –
Cc1nc(-c2ccsc2)ccc1C(=O)O [CA378] | 1.59% | -10.4% | –
CN(C)S(=O)(=O)c1ccc(N2CCCCC2)c(C(=O)O)c1 [CA379] | -2.55% | -9.97% | –

Results, then the compound that gave them:

inhibition at 1.25 µM [1] | inhibition at 1.25 µM [2] | inhibition of mUSP18 by individual CA's and coupling reagents | SMILES
-5.77% | -9.23% | – | O=C(O)c1cnc(Cc2ccc(F)cc2)s1 [CA380]
1.09% | -13.7% | – | Cc1cc(C)cc(N(CCC(=O)O)S(=O)(=O)c2ccc(Cl)cc2)c1 [CA381]
-3.25% | -8.03% | – | O=C(O)c1csc(CCc2ccccc2)n1 [CA382]
-4.57% | -8.55% | – | O=C(O)c1ccc(-c2nnco2)cc1 [CA383]
-2.51% | -6.89% | – | O=C(O)c1ccccc1Cn1cncn1 [CA384]
-2.43% | -10.4% | – | O=C(O)Cc1cnn(Cc2ccccc2)c1 [CA385]
-2.54% | -7.62% | – | CN(CC1CC1)c1ccc(C(F)(F)F)cc1C(=O)O [CA386]
-2.91% | -4.58% | – | CNS(=O)(=O)c1ccc(-c2ccc(Cl)c(Cl)c2)c(C(=O)O)c1 [CA387]
-10.4% | -3.35% | – | O=C(O)Cc1csc(N2CCCC2=O)n1 [CA388]
-6.73% | -5.95% | – | CC1CN(S(=O)(=O)c2ccc(C(=O)O)cc2)CC(C)O1 (stereo not shown) [CA389]
-7.59% | -4.7% | – | Cc1ncsc1C(=O)N(C)c1ccccc1C(=O)O [CA390]
-10.9% | 63.9% | could inhibit mUSP18 | O=C(O)Cc1ccc(-n2cccc2)cc1 [CA391]
71.2% | 56.5% | could inhibit mUSP18 | O=C(O)c1sccc1-n1cccc1 [CA392]
-1.56% | -1.99% | – | O=C(O)c1coc(C#Cc2ccccc2)c1 [CA393]
-5.76% | -1.48% | – | O=C(O)c1cccc(Oc2ccc(Cl)cc2)n1 [CA394]
-7.15% | -4.5% | – | O=C(O)c1cccnc1Oc1ccccc1Br [CA395]
-5.61% | 1.41% | – | O=C(O)c1cnn(-c2ccc(C(F)(F)F)cc2)c1 [CA396]

inhibition at 1.25 µM [1] | inhibition at 1.25 µM [2] | inhibition of mUSP18 by individual CA's and coupling reagents | SMILES
-10.2% | -2.23% | – | Cc1c[nH]c(=O)n1-c1cccc(C(=O)O)c1 [CA397]
-2.93% | 2.57% | – | Cc1ccc(Oc2ccc(C(=O)O)nc2)cc1 [CA398]
-10.1% | -0.24% | – | O=C(O)c1ccc(OCc2cccnc2)cc1 [CA399]
8.86% | 4.12% | – | CCn1cc([1C@@H]2OCCC[1C@H]2C(=O)O)cn1 [CA400]
8.14% | -4.27% | – | O=C(O)c1ccc(C#Cc2ccccc2)cc1 [CA401]
0.37% | -9.76% | – | O=C(O)C1CCN1C1CCCC1 (stereo not shown) [CA402]
0.9% | -6.97% | – | O=C(O)c1cc(S(=O)(=O)Nc2nccs2)ccc1F [CA403]
-4.12% | -12.2% | – | O=C(O)C1CCCN1C(=O)C1CC1 (stereo not shown) [CA404]
-0.68% | -7.73% | – | O=C(O)C(OC1CCOCC1)c1ccccc1 (stereo not shown) [CA405]
-2.83% | -11.1% | – | O=C(O)CCn1ccc(C(=O)N2CCCC2)n1 [CA406]
-5.56% | 33.9% | – | O=C(O)c1ccccc1OCc1cccs1 [CA407]
-2.77% | -3.75% | – | O=C(O)c1c[nH]nc1-c1ccncc1 [CA408]
-0.2% | -6.22% | – | COc1ccccc1N1CC(C(=O)O)CCC1=O (stereo not shown) [CA409]
-4.36% | -9.17% | – | Cn1nccc1[1C@@H]1C[1C@H]1C(=O)O [CA410]
-4.05% | -6.74% | – | O=C(O)C1CCCN(c2ncccn2)C1 (stereo not shown) [CA411]
-8.86% | -7.67% | – | O=C(O)c1ccc(-c2ccncc2)[nH]c1=O [CA412]
